Key:
[1] = test system: PI3-K in BT20 cells (phosphorylation of AKT at serine 473); assay: PI3-Kα Cellular Assay (AKT Ser473 phosphorylation ELISA in BT20 cells); assay type: cell-based, human; conditions: Homo sapiens, BT-20, pAKT Ser473 ELISA, 1 hour incubation
How it was run: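 Cells seeded overnight in 0.5% FBS, then exposed 1 h at 37 °C to an 11-concentration 1:3 dilution series, in duplicate.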

PI3-Kα = PI3-Kα (Mus musculus (Mouse), UniProt P42337); assay: PI3-Kα Biochemical Assay (fluorescence polarization kinase assay)
PI3-Kα, sequence (P42337 whole entry, the tested form may be a part): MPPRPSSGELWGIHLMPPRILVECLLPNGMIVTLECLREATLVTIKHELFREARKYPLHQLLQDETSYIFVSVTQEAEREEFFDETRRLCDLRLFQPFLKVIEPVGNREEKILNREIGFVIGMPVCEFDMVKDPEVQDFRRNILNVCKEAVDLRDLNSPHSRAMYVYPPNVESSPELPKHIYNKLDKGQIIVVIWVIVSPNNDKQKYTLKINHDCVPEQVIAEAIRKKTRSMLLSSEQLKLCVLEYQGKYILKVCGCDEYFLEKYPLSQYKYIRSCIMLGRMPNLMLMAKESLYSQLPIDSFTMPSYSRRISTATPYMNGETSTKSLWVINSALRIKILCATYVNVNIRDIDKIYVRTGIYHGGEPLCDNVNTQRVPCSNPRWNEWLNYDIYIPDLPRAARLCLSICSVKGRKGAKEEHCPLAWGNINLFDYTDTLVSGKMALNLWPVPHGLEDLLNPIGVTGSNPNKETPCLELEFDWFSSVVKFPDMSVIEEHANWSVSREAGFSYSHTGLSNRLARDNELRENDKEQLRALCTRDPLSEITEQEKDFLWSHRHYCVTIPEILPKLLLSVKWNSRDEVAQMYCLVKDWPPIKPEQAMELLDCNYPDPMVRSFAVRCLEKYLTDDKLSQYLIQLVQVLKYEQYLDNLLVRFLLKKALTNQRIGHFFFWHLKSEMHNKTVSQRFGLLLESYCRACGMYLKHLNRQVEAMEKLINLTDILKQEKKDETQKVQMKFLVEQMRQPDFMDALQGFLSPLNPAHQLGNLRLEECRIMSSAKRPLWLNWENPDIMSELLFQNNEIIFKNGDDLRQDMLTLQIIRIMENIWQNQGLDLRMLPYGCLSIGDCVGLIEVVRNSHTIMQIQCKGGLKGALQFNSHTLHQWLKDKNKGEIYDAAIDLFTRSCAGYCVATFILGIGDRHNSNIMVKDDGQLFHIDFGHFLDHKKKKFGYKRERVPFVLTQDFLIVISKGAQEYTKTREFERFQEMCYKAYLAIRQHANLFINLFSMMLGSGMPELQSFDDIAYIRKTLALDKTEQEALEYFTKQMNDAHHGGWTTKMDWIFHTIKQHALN
PI3-Kα, sequence (P26450 whole entry partner, the tested form may be a part): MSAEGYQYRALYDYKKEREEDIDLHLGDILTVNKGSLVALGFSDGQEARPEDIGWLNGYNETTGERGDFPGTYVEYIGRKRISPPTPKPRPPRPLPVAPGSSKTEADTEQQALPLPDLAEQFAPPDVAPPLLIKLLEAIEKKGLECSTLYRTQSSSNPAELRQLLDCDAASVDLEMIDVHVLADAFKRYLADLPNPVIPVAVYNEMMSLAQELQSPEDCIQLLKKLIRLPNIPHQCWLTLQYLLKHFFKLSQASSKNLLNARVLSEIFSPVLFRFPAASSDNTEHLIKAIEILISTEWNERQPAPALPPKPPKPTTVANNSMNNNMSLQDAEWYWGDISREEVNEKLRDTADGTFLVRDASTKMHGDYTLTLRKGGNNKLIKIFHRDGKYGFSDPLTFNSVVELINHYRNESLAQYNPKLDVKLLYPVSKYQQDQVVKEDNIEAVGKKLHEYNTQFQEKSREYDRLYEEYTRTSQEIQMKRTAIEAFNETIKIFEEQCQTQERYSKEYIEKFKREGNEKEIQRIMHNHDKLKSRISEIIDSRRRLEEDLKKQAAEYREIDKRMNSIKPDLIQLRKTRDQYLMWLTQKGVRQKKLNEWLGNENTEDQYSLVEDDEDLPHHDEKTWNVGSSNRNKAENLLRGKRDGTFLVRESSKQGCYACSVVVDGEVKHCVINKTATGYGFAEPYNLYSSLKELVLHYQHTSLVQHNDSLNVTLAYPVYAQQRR
Method: Compounds of the present invention were evaluated for potency against PI3-Kα using an in vitro kinase assay. PI3-Kα activity is measured in vitro by determining the level of phosphorylation of the substrate PI(4,5)P2. The formation of product PI(3,4,5)P3 is monitored by binding to the Grip1 PH domain in a ligand displacement fluorescence polarization (FP) assay, in which the TAMRA-labeled PI(3,4,5)P3 complexed with Grip1 PH domain is displaced by PI(3,4,5)P3 formed in the PI3-Kα reaction resulting in a decrease in FP signal. Mouse PI3-Kα P110 and P85 subunits were co-expressed in insect cells and co-purified to homogeneity. PI(4,5)P2 were obtained from Cayman. TAMRA-labeled PI(3,4,5)P3 were from Echelon, Grip1 PH domain from Dundee and other reagents were from Sigma.
All assays were performed in a Corning solid black 96-well half area plate using LJL Analyst (Molecular Devices) at room temperature. The assay buffer contained 50 mM HEPES, pH 7.4, 150 mM NaCl, 5 mM DTT, and 0.05% CHAPS. Dry powder PI(4,5)P2 was dissolved in 50 mM TRIS, pH 8 to make 1 mM stock solution. The PI(4,5)P2 stock solution was then diluted in the assay buffer to 60 μM, and sonicated for 30 sec before use. To the assay plate, the following reagents were added in sequence: 10 μL of 60 μM PI(4,5)P2, 5 μL of 4 nM PI3-Kα, 2 μL of compound in 25% DMSO, 3 μL of mixture containing 200 μM ATP and 33 mM MgCl2. The final volume for the reaction was 20 μL. The reaction mixture was incubated at room temperature for 35 min. The reaction was then stopped by 20 μL of 20 mM EDTA. […] The FP signal was allowed to develop for 40 min before reading on a LJL analyst at excitation 535 nm and emission 580 nm.
The percentage of inhibition was calculated based on the following equation % inhibition=[1−(FPcompound−FPmax)/(FPmin−FPmax)]×100, where FPcompound is the FP reading at a given compound concentration, FPmin is the FP signal of the PI3-Kα reaction in the absence of a compound, and FPmax is the background FP signal in the absence of PI3-Kα and a compound. The IC50 was determined by fitting the FP signal vs. compound concentration to a sigmoidal dose response equation using GraphPad Prism curve fitting program.

| Structure (SMILES) | IC50 [1] | IC50 (PI3-Kα) |
| --- | --- | --- |
| CCNc1nc(C)c2cc(CCC(=O)O)c(=O)n(C3CCCC3)c2n1 [Compound 130, 3-(8-Cyclopentyl-2-(ethylamino)-4-methyl-7-oxo-7,8-dihydropyrido[2,3-d]pyrimidin-6-yl)propanoic acid] | 10000 nM | 54 nM |
| CCNc1nc(C)c2cc(-c3cccnc3N)c(=O)n(C3CCCC3)c2n1 [Compound 131, 6-(2-aminopyridin-3-yl)-8-cyclopentyl-2-(ethylamino)-4-methylpyrido[2,3-d]pyrimidin-7(8H)-one] | 7980 nM | 3400 nM |
| CCNc1nc(C)c2cc(CCC(=O)OCC)c(=O)n(C3CCCC3)c2n1 [Compound 132, Ethyl 3-(8-cyclopentyl-2-(ethylamino)-4-methyl-7-oxo-7,8-dihydropyrido[2,3-d]pyrimidin-6-yl)propanoate] | 10000 nM | 5500 nM |
| CNc1nc(C)c2cc(C#N)c(=O)n(C3CCCC3)c2n1 [Compound 133, 2-Methylamino-6-carbonitrile-8-cyclopentyl-4-methylpyrido[2,3-d]pyrimidin-7(8H)-one] | 603 nM | 60 nM |
| CNc1nc(C)c2cc(-c3ncccc3F)c(=O)n(C3CCCC3)c2n1 [Compound 134, 8-cyclopentyl-6-(3-fluoropyridin-2-yl)-4-methyl-2-(methylamino)pyrido[2,3-d]pyrimidin-7(8H)-one] | 8300 nM | 2100 nM |
| CCNc1nc(C)c2cc(-c3cnc4[nH]ccc4c3)c(=O)n(C3CCCC3)c2n1 [Compound 135, 8-cyclopentyl-2-(ethylamino)-4-methyl-6-(1H-pyrrolo[2,3-b]pyridin-5-yl)pyrido[2,3-d]pyrimidin-7(8H)-one] | 46.1 nM | 1.77 nM |
| COc1cc(-c2cc3c(C)nc(N)nc3n(C3CCCC3)c2=O)ccc1O [Compound 137, 2-amino-8-cyclopentyl-6-(4-hydroxy-3-methoxyphenyl)-4-methylpyrido[2,3-d]pyrimidin-7(8H)-one] | 19 nM | 0.989 nM |
| CNc1nc(C)c2cc(-c3ccc(Cl)nc3)c(=O)n(C3CCCC3)c2n1 [Compound 138, 6-(6-chloropyridin-3-yl)-8-cyclopentyl-4-methyl-2-(methylamino)pyrido[2,3-d]pyrimidin-7(8H)-one] | 146 nM | 29.7 nM |
| CCNc1nc(C)c2cc(-c3cccc(OC)c3)c(=O)n(C3CCCC3)c2n1 [Compound 142, 8-cyclopentyl-2-(ethylamino)-6-(3-methoxyphenyl)-4-methylpyrido[2,3-d]pyrimidin-7(8H)-one] | 1390 nM | 792 nM |
| CNc1nc(C)c2cc(-c3cccc(OC)c3)c(=O)n(C3CCCC3)c2n1 [Compound 143, 8-cyclopentyl-6-(3-methoxyphenyl)-4-methyl-2-(methylamino)pyrido[2,3-d]pyrimidin-7(8H)-one] | 669 nM | 244 nM |
| COc1cccc(-c2cc3c(C)nc(N)nc3n(C3CCCC3)c2=O)c1 [Compound 145, 2-amino-8-cyclopentyl-6-(3-methoxyphenyl)-4-methylpyrido[2,3-d]pyrimidin-7(8H)-one] | 622 nM | 168 nM |
| CNc1nc(C)c2cc(-c3cccc(O)c3)c(=O)n(C3CCCC3)c2n1 [Compound 146, 8-cyclopentyl-6-(3-hydroxyphenyl)-4-methyl-2-(methylamino)pyrido[2,3-d]pyrimidin-7(8H)-one] | 1.76 nM | 0.731 nM |
| Cc1nc(N)nc2c1cc(-c1cccc(O)c1)c(=O)n2C1CCCC1 [Compound 147, 2-Amino-8-cyclopentyl-6-(3-hydroxyphenyl)-4-methylpyrido[2,3-d]pyrimidin-7(8H)-one] | 4.84 nM | 0.524 nM |
| CNc1nc(C)c2cc(-c3cccc(CO)c3)c(=O)n(C3CCCC3)c2n1 [Compound 148, 8-Cyclopentyl-6-(3-(hydroxymethyl)phenyl)-4-methyl-2-(methylamino)pyrido[2,3-d]pyrimidin-7(8H)-one] | 14.7 nM | 4.78 nM |
| COc1ccc(Cn2c(=O)c(-c3ccccc3)cc3c(C)nc(N)nc32)cc1 [Compound 149, 8-(4-Methoxybenzyl)-2-amino-4-methyl-6-phenylpyrido[2,3-d]pyrimidin-7(8H)-one] | > 10000 nM | 310 nM |
| Cc1nc(N)nc2c1cc(-c1ccccc1)c(=O)n2Cc1ccc(Cl)cc1 [Compound 150, 8-(4-Chlorobenzyl)-2-amino-4-methyl-6-phenylpyrido[2,3-d]pyrimidin-7(8H)-one] | > 10000 nM | 1400 nM |
| Cc1nc(N)nc2c1cc(-c1ccncc1)c(=O)n2Cc1ccc(Cl)cc1 [Compound 151, 8-(4-Chlorobenzyl)-2-amino-4-methyl-6-(pyridin-4-yl)pyrido[2,3-d]pyrimidin-7(8H)-one] | > 10000 nM | 4900 nM |
| Cc1nc(N)nc2c1cc(-c1cnn(C)c1)c(=O)n2[C@H]1CC[C@H](O)CC1 [Compound 154, 2-amino-8-(trans-4-hydroxycyclohexyl)-4-methyl-6-(1-melhyl-1H-pyrazol-4-yl)pyrido[2,3-d]pyrimidin-7(8H)-one] | 475 nM | 18 nM |
| COc1ccc(-c2cc3c(C)nc(N)nc3n([C@@H]3CC[C@H](O)C3)c2=O)cn1 [Compound 155, 2-amino-8-[(1R,3S)-3-hydroxycyclopentyl]-6-(6-methoxypyridin-3-yl)-4-methylpyrido[2,3-d]pyrimidin-7(8H)-one] | 82.9 nM | 11 nM |
| Cc1nc(N)nc2c1cc(-c1cn[nH]c1)c(=O)n2[C@H]1CC[C@H](O)CC1 [Compound 156, 2-amino-8-(trans-4-hydroxycyclohexyl)-4-methyl-6-(1H-pyrazol-4-yl)pyrido(2,3-d]pyrimidin-7(8H)-one] | 169 nM | 6.7 nM |
| Cc1nc(N)nc2c1cc(-c1cnc3[nH]ccc3c1)c(=O)n2[C@H]1CC[C@H](O)CC1 [Compound 158, 2-amino-8-(trans-4-hydroxycyclohexyl)-4-methyl-6-(1H-pyrrolo[2,3-b]pyridin-5-yl)pyrido[2,3-d]pyrimidin-7(8H)-one] | 31.9 nM | 1.3 nM |
| COc1ccc(-c2cc3c(C)nc(N)nc3n([C@@H]3CC[C@@H](O)C3)c2=O)cn1 [Compound 159, 2-amino-8-[(1R,3R)-3-hydroxycyclopentyl]-6-(6-methoxypyridin-3-yl)-4-methylpyrido[2,3-d]pyrimidin-7(8H)-one] | 87.6 nM | 4.6 nM |
| Cc1nc(N)nc2c1cc(-c1cnc3[nH]ccc3c1)c(=O)n2[C@@H]1CC[C@H](O)C1 [Compound 163, 2-amino-8-[(1R,3S)-3-hydroxycyclopentyl]-4-methyl-6-(1H-pyrrolo[2,3-b]pyridin-5-yl)pyrido[2,3-d]pyrimidin-7(8H)-one] | 20.4 nM | 1.2 nM |
| Cc1nc(N)nc2c1cc(-c1cnc3[nH]ccc3c1)c(=O)n2[C@@H]1CC[C@@H](O)C1 [Compound 165, 2-amino-8-[(1R,3R)-3-hydroxycyclopentyl]-4-methyl-6-(1H-pyrrolo[2,3-b]pyridin-5-yl)pyrido[2,3-d]pyrimidin-7(8H)-one] | 55.8 nM | 1.2 nM |
| Cc1nc(N)nc2c1cc(Br)c(=O)n2[C@H]1CC[C@@H](O)CC1 [Compound 168, 2-amino-6-bromo-8-(cis-4-hydroxycyclohexyl)-4-methylpyrido[2,3-d]pyrimidin-7(8H)-one] | 228 nM | 130 nM |
| Cc1nc(N)nc2c1cc(-c1ccc(F)cc1)c(=O)n2CC(C)(C)O [Compound 170, 2-amino-6-(4-fluorophenyl)-8-(2-hydroxy-2-methylpropyl)-4-methylpyrido[2,3-d]pyrimidin-7(8H)-one] | 10000 nM | 3400 nM |
| Cc1nc(N)nc2c1cc(-c1cnc3ccccc3c1)c(=O)n2CC(C)(C)O [Compound 173, 2-amino-8-(2-hydroxy-2-methylpropyl)-4-methyl-6-quinolin-3-ylpyrido[2,3-d]pyrimidin-7(8H)-one] | 322 nM | 270 nM |
| COc1ccc(-c2cc3c(C)nc(N)nc3n(C3CCC(=O)CC3)c2=O)cn1 [Compound 175, 2-amino-6-(6-methoxypyridin-3-yl)-4-methyl-8-(4-oxocyclohexyl)pyrido[2,3-d]pyrimidin-7(8H)-one] | 19.3 nM | 4.3 nM |
| CO[C@H]1CC[C@H](n2c(=O)c(Br)cc3c(C)nc(N)nc32)CC1 [Compound 178] | 64 nM | 31 nM |

Reference: patent US8633204B2 (Pfizer Inc., priority 2006, dated 2014)
